What all share (type): cell-based, human
Assay [1] deals with cleaved caspase 3 (c-Casp3). The assay is described as follows: Western blot of stem cells exposed to IAP antagonists and ponatinib (cleaved caspase 3). Conditions: BE stem cells exposed to IAP antagonist and ponatinib; six-hour exposure; FIG. 42c. An excerpt: Based on the properties of diverse IAP antagonists in combination with ponatinib towards BE stem cells, synthetic chemistry was employed to expand the repertoire of IAP antagonists available for these studies. A squaramide linker strategy was chosen for generating bivalent IAP antagonists based on its planar structure and separation of the headgroups that contain the peptide […] domains that interact with cIAP1, cIAP2, and XIAPs, and screened them in dose-response assays against BE stem cells in the presence and absence of ponatinib (FIG. 42d).
In general terms: A western blot detects proteins with antibodies after separation by electrophoresis.

For assay [2], the system named is RIPK1 S320/S166 phosphorylation, cIAP1, cIAP2, cleaved Caspase 3 in LGD stem cells. Nature of the assay: Western blot of LGD stem cells (RIPK1 phosphorylation, cIAP1/cIAP2, cleaved Caspase 3). The conditions noted are these: ponatinib 300 nM, 7532N 10 nM, 16 hr per FIG. 42j.
Another assay has as its system BE stem cells. Nature of the assay: Survival of Barrett's esophagus (BE) stem cells, high-throughput screen and dose-response. An excerpt: The present example describes methods used for testing the efficacy of compounds described herein. The selective growth of stem cells of cancers, of their precursor lesions, and of normal and chronically diseased epithelial tissues is described in the references below. In brief, biopsied tissues are reduced to single cell suspensions and plated onto lawns of irradiated 3T3-J2 feeder cells in specialized StemEcho media and libraries of colonies are evident in 7-10 days. Single cell-derived clones are generated by single cell FACS sorting to 384 well plates and wells with individual colonies are expanded, analyzed by molecular genetics, and grown as discrete clones.
After 2-5 days, the cells are fixed using paraformaldehyde and the human cells are labelled with human-specific antibodies followed by fluorochrome-labelled secondary antibodies. Human cell numbers are quantified via high-throughput imaging technology (CellInsight CX7 LED, Thermo), and data analyzed by Excel.
To learn more about the relative efficacy of these IAP antagonists in a synthetic lethal combination with ponatinib, we compared their effects in dose-response assays in vitro against BE stem cells. […]

Regarding `CN[C@@H](C)C(=O)N[C@H](C(=O)N1CCC[C@H]1C(=O)N[C@H]1c2ccccc2C[C@H]1OCC#CC#CCO[C@@H]1Cc2ccccc2[C@@H]1NC(=O)[C@@H]1CCCN1C(=O)[C@@H](NC(=O)[C@H](C)NC)C1CCCCC1)C1CCCCC1` [AZD5582], the “Induction of cleaved caspase 3 (c-Casp3), western blot” value in assay [1] is recorded as “induced a cleaved caspase 3”.
In the case of `CN[C@@H](C)C(=O)N[C@H](C(=O)N1CCC[C@H]1C(=O)N[C@H]1c2ccccc2C[C@H]1OCCOCCNc1c(NCCOCCO[C@@H]2Cc3ccccc3[C@@H]2NC(=O)[C@@H]2CCCN2C(=O)[C@@H](NC(=O)[C@H](C)NC)C2CCCCC2)c(=O)c1=O)C1CCCCC1` [Compound I-1], the “RIPK1 phosphorylation, cIAP1/cIAP2 and apoptosis in LGD stem cells, western blot” value in assay [2] is “degradation of cIAP1 and cIAP2 without inducing cleaved Caspase 3”.
As to `CN[C@@H](C)C(=O)N[C@H]1CCCC[C@H]2CC[C@@H](C(=O)N[C@@H](c3ccccc3)c3cn(CCCCc4ccc(CCCCn5cc([C@@H](NC(=O)[C@@H]6CC[C@@H]7CCCC[C@H](NC(=O)[C@H](C)NC)C(=O)N76)c6ccccc6)nn5)cc4)nn3)N2C1=O` [SM-164], the “Induction of cleaved caspase 3 (c-Casp3), western blot” value in assay [1] was “induced a cleaved caspase 3”.
`Cc1cn(-c2cc(NC(=O)c3ccc(C)c(Nc4nccc(-c5cccnc5)n4)c3)cc(C(F)(F)F)c2)cn1` [nilotinib]: in the assay with BE stem cells (screens against BE and ESO stem cells), the “Identification in high-throughput screens” value is listed as “not identified in our screens”.
Take `Cc1ccc(C(=O)Nc2ccc(CN3CCN(C)CC3)c(C(F)(F)F)c2)cc1C#Cc1cnc2cccnn12` [ponatinib]: the “Inhibition of BE stem cells” value in the assay on BE stem cells (eight patient-derived BE stem cells, FIG. 40d) is reported as 20%.

Values taken from patent US20260060957A1, “COMPOUNDS AND COMPOSITIONS USEFUL FOR TREATMENT OF PROLIFERATIVE DISEASE OR DISORDER” (University of Houston System, priority 2023, published 2026).
